In ChEMBL document CHEMBL1148272, “3D-QSAR studies on PU3 analogues by comparative molecular field analysis” (Bioorg Med Chem Lett, 2004):
pIC50: −log10 of the molar value.

The molecules below were run on MCF7 (assay: Antiproliferative activity evaluated against MCF-7 cell line). Conditions: Homo sapiens.
Format: functional, cell-based

pIC50	SMILES
4.72	CCCCn1c(Cc2cc(OC)c(OC)c(OC)c2Cl)nc2c(N)ncnc21
5.70	C#CCCCn1c(Cc2cc(OC)c(OC)c(OC)c2Cl)nc2c(N)nc(F)nc21
4.30	CCCCn1c(Cc2cc(OC)c(OC)c(OC)c2)nc2c(N)ncnc21
4.15	COc1cc(Cc2nc3c(N)ncnc3n2C)cc(OC)c1OC
4.62	CCCCn1c(Cc2cc(OC)c(OC)c(OC)c2)nc2c(N)nc(F)nc21
4.62	C#CCCCn1c(Cc2cc(OC)c(OC)c(OC)c2)nc2c(N)ncnc21
4.19	COCCn1c(Cc2cc(OC)c(OC)c(OC)c2)nc2c(N)nc(F)nc21
4.01	COc1cc(Cc2nc3c(N)ncnc3n2CC(C)C)cc(OC)c1OC
4.39	COc1cc(Cc2nc3c(N)nc(F)nc3n2CC2CCC2)cc(OC)c1OC
4.33	CCCn1c(Cc2cc(OC)c(OC)c(OC)c2)nc2c(N)ncnc21
4.60	CCCn1c(Cc2cc(OC)c(OC)c(OC)c2)nc2c(N)nc(F)nc21
4.80	COc1cc(Cc2nc3c(N)nc(F)nc3n2CCOC(C)C)cc(OC)c1OC
4.04	COc1cc(Cc2nc3c(N)ncnc3n2CC2CCCO2)cc(OC)c1OC (stereo not given)
4.16	COc1cc(Cc2nc3c(N)ncnc3n2CCCC(C)C)cc(OC)c1OC
4.14	COc1cc(Cc2nc3c(N)ncnc3n2CC(OC)OC)cc(OC)c1OC
4.60	CCCCn1c(Cc2cc(OC)c(OC)c(OC)c2Br)nc2c(N)ncnc21
4.19	CC/C=C\Cn1c(Cc2cc(OC)c(OC)c(OC)c2)nc2c(N)ncnc21
4.21	CCC(C)Cn1c(Cc2cc(OC)c(OC)c(OC)c2)nc2c(N)ncnc21 (stereo not given)
4.48	C=CCCn1c(Cc2cc(OC)c(OC)c(OC)c2)nc2c(N)nc(F)nc21
4.21	CCCCCn1c(Cc2cc(OC)c(OC)c(OC)c2)nc2c(N)ncnc21

pIC50	SMILES
4.39	C=CCCn1c(Cc2cc(OC)c(OC)c(OC)c2)nc2c(N)ncnc21
3.95	COc1cc(Cc2nc3c(N)ncnc3n2CC2(C)CC2)cc(OC)c1OC
4.96	C#CCCCn1c(Cc2cc(OC)c(OC)c(OC)c2)nc2c(N)nc(F)nc21
4.33	CC/C=C/Cn1c(Cc2cc(OC)c(OC)c(OC)c2)nc2c(N)ncnc21
4.34	COc1cc(Cc2nc3c(N)ncnc3n2CC2CCC2)cc(OC)c1OC
4.10	CCn1c(Cc2cc(OC)c(OC)c(OC)c2)nc2c(N)ncnc21
4.44	CCCCCn1c(Cc2cc(OC)c(OC)c(OC)c2)nc2c(N)nc(F)nc21
5.27	COc1cc(Cc2nc3c(N)nc(F)nc3n2CCOC(C)C)c(Cl)c(OC)c1OC
4.36	CC[C@H](C)Cn1c(Cc2cc(OC)c(OC)c(OC)c2)nc2c(N)nc(F)nc21
4.64	COc1cc(Cc2nc3c(N)nc(F)nc3n2CC2CCCO2)cc(OC)c1OC (stereo not given)
4.52	CCCCn1c(Cc2c(Br)c(OC)c(OC)c(OC)c2Br)nc2c(N)ncnc21
4.29	C/C=C/Cn1c(Cc2cc(OC)c(OC)c(OC)c2)nc2c(N)ncnc21
4.60	C#CCCn1c(Cc2cc(OC)c(OC)c(OC)c2)nc2c(N)nc(F)nc21
4.19	COCCn1c(Cc2cc(OC)c(OC)c(OC)c2)nc2c(N)ncnc21
4.43	CC#CCCn1c(Cc2cc(OC)c(OC)c(OC)c2)nc2c(N)nc(F)nc21
3.80	CCC(CC)Cn1c(Cc2cc(OC)c(OC)c(OC)c2)nc2c(N)ncnc21
4.40	COc1cc(Cc2nc3c(N)ncnc3n2CC2CCCCC2)cc(OC)c1OC
4.41	COc1cc(Cc2nc3c(N)ncnc3n2CCOC(C)C)cc(OC)c1OC
4.35	C=CCCCn1c(Cc2cc(OC)c(OC)c(OC)c2)nc2c(N)nc(F)nc21
4.12	COc1cc(Cc2nc3c(N)ncnc3n2CC2CC2)cc(OC)c1OC
